Target: T1, porcine pancreatic lipase (Sus scrofa, UniProt P00591)
T1 construct: purchased U.S. Biochemical Corporation
T1 sequence (P00591 1-450): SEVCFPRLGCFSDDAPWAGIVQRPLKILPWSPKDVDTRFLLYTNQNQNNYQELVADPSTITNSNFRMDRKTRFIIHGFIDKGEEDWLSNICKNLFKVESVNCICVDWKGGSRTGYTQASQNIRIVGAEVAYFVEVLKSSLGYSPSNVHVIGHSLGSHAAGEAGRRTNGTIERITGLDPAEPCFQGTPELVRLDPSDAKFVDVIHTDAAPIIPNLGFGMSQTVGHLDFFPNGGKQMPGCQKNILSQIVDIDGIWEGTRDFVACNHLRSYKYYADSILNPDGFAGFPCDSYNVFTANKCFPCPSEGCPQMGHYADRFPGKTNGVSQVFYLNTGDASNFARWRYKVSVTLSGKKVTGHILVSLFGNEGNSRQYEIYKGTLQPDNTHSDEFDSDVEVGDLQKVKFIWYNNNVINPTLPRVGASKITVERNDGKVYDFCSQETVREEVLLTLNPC
Test: in vitro digestibility (lipase hydrolysis) screening test
Type: biochemical
Settings: in 10 minutes with this enzyme system, 37° C., pH 7.1 phosphate buffer; triglyceride control
Procedure: This example outlines the procedure for estimating the in vitro digestibility of the polyvinyl esters of this invention.
Buffer: A pH 7.1 phosphate buffer is prepared by dissolving 6.8 g. KH2 PO4 in 1 L. of millipore filtered water (to yield 0.05M phosphate). Fifty mg. Ca(NO3)2 and 5.0 g. cholic acid (Na salt, an ox bile isolate from Sigma) are added to give 300 microM Ca^++ and 0.5% cholic acid in 0.05M phosphate. The pH is adjusted to approximately 7.1 with solid NaOH. Several drops of Baker "Resi-analyzed" toluene are added to prevent bacterial growth during storage at 3-5° C.
Lipase: About 15 mg./mL commercial porcine pancreatic lipase from U.S. Biochemical Corporation is dissolved in buffer.
(The proper concentration may be approximated by doubling the molecular weight of the lipid in question, dividing by 10, and diluting to the mark; this yields about 200 nanomoles per microliter.) This preparation affords the substrate to be used in the hydrolysis reactions. Fatty acids and glyceride standards from Nu Chek or Sigma are prepared for elution on TLC plates (prewashed with 1:1 chloroform/methanol) by diluting the substrate solution with 10:1 toluene (1 part substrate plus 9 parts toluene) in septum vials. […]

- hydrolysis by pancreatic lipase (in vitro digestibility): substantially hydrolyzed
SMILES: CCCCCCCC/C=C\CCCCCCCC(=O)OCC(COC(=O)CCCCCCC/C=C\CCCCCCCC)OC(=O)CCCCCCC/C=C\CCCCCCCC [triolein]
